{"source": "paper PMC5608031", "about": "(Hormone molecular biology and clinical investigation, 2017)", "molecular_target": "human cytosolic sulfotransferase 1C4 (hSULT1C4) (Homo sapiens, UniProt O75897)", "sequence (O75897 whole entry)": "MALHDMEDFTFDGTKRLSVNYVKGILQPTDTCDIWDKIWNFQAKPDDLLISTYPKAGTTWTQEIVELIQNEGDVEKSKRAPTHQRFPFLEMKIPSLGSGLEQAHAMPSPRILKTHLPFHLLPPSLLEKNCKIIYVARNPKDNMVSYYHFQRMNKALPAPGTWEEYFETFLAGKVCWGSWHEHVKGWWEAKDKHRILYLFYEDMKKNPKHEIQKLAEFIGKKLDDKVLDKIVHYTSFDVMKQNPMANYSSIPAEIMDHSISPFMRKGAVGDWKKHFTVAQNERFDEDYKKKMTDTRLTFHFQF", "assay": "biochemical", "type": "binding", "data": [{"smiles": "Nc1ncnc2c1ncn2[C@@H]1O[C@H](COP(=O)(O)O)[C@@H](OP(=O)(O)O)[C@H]1O", "note": "[PAP]", "values": [{"measurement": "Kd", "value": "2800 ± 200", "unit": "nM"}]}]}
